Key:
[1] = system: catalase from Aspergillus niger / catalase from microorganisms (as active intracellular catalase); experiment: Catalase inactivation test: oxygen evolution from hydrogen peroxide measured as pressure in a closed tube, active intracellular catalase; assay type: biochemical, Aspergillus niger; various bacteria and/or fungi; conditions: 35 units of catalase from Aspergillus niger or from microorganisms in 1 ml sample, 7 ml solution of the title compound, 0.23 g hydrogen peroxide 30%, 15 minutes at room temperature
Description: (§1) The following reagents are provided: • catalase from ox liver (as active endogenous catalase) • catalase from Aspergillus niger (as active intracellular catalase) • catalase from microorganisms^(*) (as active intracellular catalase) • antifoam (RD® from Dow Corning) • hydrogen peroxide (Perhydrol® 30% from Merck) ^(*)various bacteria and/or fungi
(§2) Each sample contains in each case 35 units of catalase from ox liver or from Aspergillus niger or from microorganisms per ml of distilled water. The 1 ml sample is put in a 15 ml tube (Vacutainer® 16×125 mm from Becton Dickinson), and in each case 7 ml of the aforementioned solution of the title compound are added and mixed therewith (Vortex® Genie 2 mixer from Merck). Then 1 drop of said antifoam is added and mixing is repeated. Thereafter 0.23 g of said hydrogen peroxide is added, and the tube is immediately made gas-tight with a stopper made of chemical-resistant elastic plastic (Viton® from Du Pont de Nemours), briefly (for a few seconds) ventilated with the aid of a hollow needle (Ø1 mm hypodermic needle) piercing the stopper and, immediately thereafter, closed gas-tight again by withdrawing the hollow needle from the stopper. The tube which has been closed gas-tight is left to stand at room temperature for 15 minutes. […] The pressure in the tube is then measured (cf. the description hereinafter of the preferred pressure gage). […]

[2] = biological target: T1, catalase from ox liver (as active endogenous catalase) (Bos taurus, UniProt P00432); experiment: Catalase inactivation test: oxygen evolution from hydrogen peroxide measured as pressure in a closed tube, active endogenous catalase; assay type: biochemical; conditions: 35 units of catalase from ox liver in 1 ml sample, 7 ml solution of the title compound, 0.23 g hydrogen peroxide 30%, 15 minutes at room temperature
T1 construct: catalase from ox liver (as active endogenous catalase); from tissue; host or cells: ox liver
T1 sequence (P00432 2-527 limits assumed): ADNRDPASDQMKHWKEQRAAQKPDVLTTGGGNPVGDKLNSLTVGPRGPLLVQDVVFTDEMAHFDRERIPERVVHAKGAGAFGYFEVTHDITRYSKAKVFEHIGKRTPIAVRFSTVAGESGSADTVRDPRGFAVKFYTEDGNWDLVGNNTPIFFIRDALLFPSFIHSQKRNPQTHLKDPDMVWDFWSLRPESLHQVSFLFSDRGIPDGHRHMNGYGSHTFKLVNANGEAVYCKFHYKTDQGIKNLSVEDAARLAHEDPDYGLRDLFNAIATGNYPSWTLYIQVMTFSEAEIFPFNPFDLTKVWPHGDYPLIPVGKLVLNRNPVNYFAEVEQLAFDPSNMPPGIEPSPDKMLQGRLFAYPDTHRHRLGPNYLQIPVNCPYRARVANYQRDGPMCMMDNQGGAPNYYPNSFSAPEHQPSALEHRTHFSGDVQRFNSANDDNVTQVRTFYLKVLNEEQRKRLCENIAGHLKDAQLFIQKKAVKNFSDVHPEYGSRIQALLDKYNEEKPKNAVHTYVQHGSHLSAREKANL
Description: as §1, §2

For CH2═CH—COO—SO2—O—C12H25, the “catalase activity by oxygen evolution (pressure in the tube)” value [1] was “the pressure in the tube increases” and the “catalase activity by oxygen evolution (pressure in the tube)” value [2] was “the pressure in the tube does not increase”.

Reference: patent US7135299B2, “Catalase-inactivating compounds and the use thereof” (priority 2001, dated 2006)
